Test results reported in patent publication US9821173B2, “Anti-cancer agents and methods of use” (Case Western Reserve University, priority 2013, dated 2017).
Several values for one entry are separate records, joined by “and”; a condition that tells them apart may be missing. Equal values may be shown once. Entries after “also recorded” stand apart in the source; their conditions may differ.

Legend:
HeLa cells = assay: Cell cycle analyses (PI staining, flow cytometry); assay type: cell-based; details: for G1 (%) / G2/M (%) / S-Phase (%): 50 μM, 24 hours post-treatment
Method: Cells were plated at a density of 200,000/ml. Au(I)-Indole analogs were then added in a dose-dependent manner for time periods varying from 1 to 3 days. Cells were treated with 0.25% trypsin and harvested by centrifugation. The supernatant was removed and then washed with PBS. After aspiration of PBS, 500 μl of 70% ethanol was added and cells were incubated on ice for 15 minutes followed by centrifugation and the removal of ethanol. One ml of PI staining solution [(10 ml of 0.1 Triton X-100/PBS, 0.4 ml of 500 μg/ml of PI, and 2 mg/ml of DNase-free RNase)] was added to the cell suspension, placed on ice for 30 minutes, and then analyzed using a Beckman Coulter XL flow cytometer with a red filter.
We next analyzed the effects of compounds 3 and 4 on cell-cycle progression using PI staining to measure cellular DNA content. HeLa cells were treated with DMSO.

BSA = BSA (Bos taurus, UniProt P02769); assay: Reactivity of Au(I)-compounds with BSA thiol (DTNB -SH titer); parameters: species or system bovine; details: 120 μM compound, Au(I)/BSA ratios up to 4:1, one hour, 37° C., PBS
Method: PBS was used as the reaction buffer.
We tested the ability of various Au(I)-complexes to non-selectively react with BSA. […] P2 resin was effective in retaining Au(I)-containing compounds including compound 3 and compound 4. However, BSA was not retained in the resin as >95% of the BSA loaded into the Penefsky column is recovered in the eluant. […] Values obtained from reactions containing BSA incubated with the various Au(I) complexes were compared to identical reactions containing BSA alone and eluted through Penefsky columns.

BLK = molecular target: T1, BLK (Homo sapiens, UniProt P51451); assay: Kinase inhibition screening (Luceome); assay type: biochemical; details: 10 μM
T1 construct: purchased Luceome Biotechnologies (Tucson, Ariz.)
T1 sequence (P51451 whole entry): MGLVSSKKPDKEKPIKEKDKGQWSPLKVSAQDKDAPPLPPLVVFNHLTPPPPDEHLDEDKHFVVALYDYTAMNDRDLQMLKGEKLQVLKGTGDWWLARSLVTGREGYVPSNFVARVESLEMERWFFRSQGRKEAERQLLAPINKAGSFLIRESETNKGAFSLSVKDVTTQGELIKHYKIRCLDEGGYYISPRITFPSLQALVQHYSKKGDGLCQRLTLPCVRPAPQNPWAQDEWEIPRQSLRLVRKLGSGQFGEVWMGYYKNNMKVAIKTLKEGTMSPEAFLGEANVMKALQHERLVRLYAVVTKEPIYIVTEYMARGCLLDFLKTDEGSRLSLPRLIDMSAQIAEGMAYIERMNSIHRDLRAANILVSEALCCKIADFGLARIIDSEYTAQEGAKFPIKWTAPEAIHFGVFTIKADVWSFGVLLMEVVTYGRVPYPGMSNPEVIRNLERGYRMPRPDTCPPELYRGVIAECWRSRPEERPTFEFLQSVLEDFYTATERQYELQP
From the text: (§1) It is well established that dysfunctional and unregulated kinase activity plays significant roles in cancer initiation and progression. […] Inspection of the data provides several interesting observations. […] These inhibitory effects at this concentration are consistent with their measured IC50 values that are also in the μM range (Table 1). In addition, several kinases display overlapping inhibitory responses to both gold(I) compounds. Many of these are of particular interest since they are involved in cancer initiation and/or progression. For example, the Aurora kinase family members, Aurora A and Aurora B, as well as the MARK2 and MARK3 kinases function during mitosis to regulate cell division. These kinases are important therapeutic targets as their activities are often deregulated in many types of cancers. Other kinases such as RPS6KA3 and MLK3 are involved in the MAP kinase and JNK pathways which are also important in cancer progression.

CAMK1 = molecular target: T2, CAMK1 (Homo sapiens, UniProt Q14012); assay: Kinase inhibition screening (Luceome); assay type: biochemical; details: 10 μM
T2 construct: purchased Luceome Biotechnologies (Tucson, Ariz.)
From the text: as §1

DDR2 = molecular target: T3, DDR2 (Homo sapiens, UniProt Q16832); assay: Kinase inhibition screening (Luceome); assay type: biochemical; details: 10 μM
T3 construct: purchased Luceome Biotechnologies (Tucson, Ariz.)
From the text: as §1

FGFR2 = molecular target: T4, FGFR2 (Homo sapiens, UniProt P21802); assay: Kinase inhibition screening (Luceome); assay type: biochemical; details: 10 μM
T4 construct: purchased Luceome Biotechnologies (Tucson, Ariz.)
From the text: as §1

MARK3 = molecular target: T5, MARK3 (Homo sapiens, UniProt P27448); assay: Kinase inhibition screening (Luceome); assay type: biochemical; details: 10 μM
T5 construct: purchased Luceome Biotechnologies (Tucson, Ariz.)
T5 sequence (P27448 whole entry): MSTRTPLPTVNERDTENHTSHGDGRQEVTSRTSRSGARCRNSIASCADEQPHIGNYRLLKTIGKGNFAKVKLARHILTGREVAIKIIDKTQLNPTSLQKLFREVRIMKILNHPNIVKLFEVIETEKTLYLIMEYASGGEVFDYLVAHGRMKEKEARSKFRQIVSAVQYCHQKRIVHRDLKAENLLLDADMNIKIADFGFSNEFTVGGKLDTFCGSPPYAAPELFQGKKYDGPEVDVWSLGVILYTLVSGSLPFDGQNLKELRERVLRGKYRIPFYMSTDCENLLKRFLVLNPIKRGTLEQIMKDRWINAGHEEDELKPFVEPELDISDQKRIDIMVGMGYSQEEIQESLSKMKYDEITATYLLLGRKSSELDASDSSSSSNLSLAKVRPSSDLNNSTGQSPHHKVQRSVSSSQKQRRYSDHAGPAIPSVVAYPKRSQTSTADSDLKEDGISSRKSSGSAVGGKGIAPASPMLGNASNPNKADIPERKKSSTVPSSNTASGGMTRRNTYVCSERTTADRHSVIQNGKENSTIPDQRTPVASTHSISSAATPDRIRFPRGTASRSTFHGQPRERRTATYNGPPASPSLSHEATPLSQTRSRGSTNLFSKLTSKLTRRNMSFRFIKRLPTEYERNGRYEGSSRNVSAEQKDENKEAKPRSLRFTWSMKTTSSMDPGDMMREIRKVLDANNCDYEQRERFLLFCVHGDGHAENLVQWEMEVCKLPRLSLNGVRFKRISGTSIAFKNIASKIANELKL
From the text: as §1

MLK1 = molecular target: T6, MLK1 (Homo sapiens, UniProt P80192); assay: Kinase inhibition screening (Luceome); assay type: biochemical; details: 10 μM
T6 construct: purchased Luceome Biotechnologies (Tucson, Ariz.)
T6 sequence (P80192 whole entry): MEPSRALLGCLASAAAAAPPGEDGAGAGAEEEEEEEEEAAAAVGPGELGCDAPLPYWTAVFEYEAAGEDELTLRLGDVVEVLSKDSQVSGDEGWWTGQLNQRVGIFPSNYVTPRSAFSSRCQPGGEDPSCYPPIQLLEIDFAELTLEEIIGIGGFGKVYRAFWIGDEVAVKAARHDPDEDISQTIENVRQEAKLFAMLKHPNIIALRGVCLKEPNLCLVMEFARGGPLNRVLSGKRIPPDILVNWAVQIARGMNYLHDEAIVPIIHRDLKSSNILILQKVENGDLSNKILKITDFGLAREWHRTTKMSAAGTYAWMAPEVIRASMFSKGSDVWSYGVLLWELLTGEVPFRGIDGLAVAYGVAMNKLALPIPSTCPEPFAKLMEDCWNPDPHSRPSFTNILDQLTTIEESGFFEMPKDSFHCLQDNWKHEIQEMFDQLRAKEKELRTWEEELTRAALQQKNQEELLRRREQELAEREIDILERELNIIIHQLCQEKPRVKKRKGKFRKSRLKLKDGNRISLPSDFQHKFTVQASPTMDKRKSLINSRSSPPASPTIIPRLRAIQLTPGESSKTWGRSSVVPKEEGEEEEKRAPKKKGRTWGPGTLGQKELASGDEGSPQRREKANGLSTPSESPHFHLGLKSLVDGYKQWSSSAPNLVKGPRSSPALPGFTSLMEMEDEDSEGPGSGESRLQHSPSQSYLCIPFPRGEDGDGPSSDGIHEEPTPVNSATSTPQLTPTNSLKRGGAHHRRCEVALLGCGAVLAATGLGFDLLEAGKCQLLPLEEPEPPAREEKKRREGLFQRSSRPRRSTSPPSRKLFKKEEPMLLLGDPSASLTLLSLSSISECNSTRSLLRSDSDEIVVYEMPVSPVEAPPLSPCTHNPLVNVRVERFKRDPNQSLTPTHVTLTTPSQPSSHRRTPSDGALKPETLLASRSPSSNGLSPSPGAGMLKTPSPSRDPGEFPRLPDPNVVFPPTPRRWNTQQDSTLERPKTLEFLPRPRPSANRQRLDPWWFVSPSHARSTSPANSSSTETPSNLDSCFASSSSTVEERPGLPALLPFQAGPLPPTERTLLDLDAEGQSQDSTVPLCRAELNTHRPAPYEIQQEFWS
From the text: as §1

MLK3 = molecular target: T7, MLK3 (Homo sapiens, UniProt Q16584); assay: Kinase inhibition screening (Luceome); assay type: biochemical; details: 10 μM
T7 construct: purchased Luceome Biotechnologies (Tucson, Ariz.)
From the text: as §1

PDGFRB = molecular target: T8, PDGFRB (Homo sapiens, UniProt P09619); assay: Kinase inhibition screening (Luceome); assay type: biochemical; details: 10 μM
T8 construct: purchased Luceome Biotechnologies (Tucson, Ariz.)
T8 sequence (P09619 33-1106): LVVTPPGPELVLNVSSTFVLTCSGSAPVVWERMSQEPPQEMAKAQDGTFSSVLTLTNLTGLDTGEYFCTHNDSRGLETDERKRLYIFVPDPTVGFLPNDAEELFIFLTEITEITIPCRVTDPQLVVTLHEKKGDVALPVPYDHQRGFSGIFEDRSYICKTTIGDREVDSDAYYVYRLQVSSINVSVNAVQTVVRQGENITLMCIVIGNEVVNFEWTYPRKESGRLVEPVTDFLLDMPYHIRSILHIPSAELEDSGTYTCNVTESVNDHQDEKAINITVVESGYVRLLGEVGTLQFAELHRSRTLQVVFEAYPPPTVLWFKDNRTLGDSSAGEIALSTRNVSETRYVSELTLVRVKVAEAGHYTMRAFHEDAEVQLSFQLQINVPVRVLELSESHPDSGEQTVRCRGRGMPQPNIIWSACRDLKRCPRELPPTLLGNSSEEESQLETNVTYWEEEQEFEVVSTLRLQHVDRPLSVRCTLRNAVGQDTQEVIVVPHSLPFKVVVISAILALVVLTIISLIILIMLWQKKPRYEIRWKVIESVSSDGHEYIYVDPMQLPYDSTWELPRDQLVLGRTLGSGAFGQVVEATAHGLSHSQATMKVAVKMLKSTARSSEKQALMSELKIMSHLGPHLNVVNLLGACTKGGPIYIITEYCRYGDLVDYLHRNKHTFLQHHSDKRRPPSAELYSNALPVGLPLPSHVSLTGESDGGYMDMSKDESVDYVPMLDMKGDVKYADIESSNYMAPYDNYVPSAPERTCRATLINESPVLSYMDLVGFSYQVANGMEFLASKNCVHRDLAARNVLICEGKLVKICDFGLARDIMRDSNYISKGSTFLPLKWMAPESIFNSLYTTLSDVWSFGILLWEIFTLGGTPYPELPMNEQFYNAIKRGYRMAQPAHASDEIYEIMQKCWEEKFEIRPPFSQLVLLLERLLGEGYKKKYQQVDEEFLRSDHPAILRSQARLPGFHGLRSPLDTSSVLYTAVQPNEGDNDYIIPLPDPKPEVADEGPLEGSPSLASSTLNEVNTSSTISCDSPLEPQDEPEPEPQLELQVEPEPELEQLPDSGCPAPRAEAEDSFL
From the text: as §1

PKC-η = molecular target: T9, PKC-η (Homo sapiens, UniProt P24723); assay: Kinase inhibition screening (Luceome); assay type: biochemical; details: 10 μM
T9 construct: purchased Luceome Biotechnologies (Tucson, Ariz.)
T9 sequence (P24723 whole entry): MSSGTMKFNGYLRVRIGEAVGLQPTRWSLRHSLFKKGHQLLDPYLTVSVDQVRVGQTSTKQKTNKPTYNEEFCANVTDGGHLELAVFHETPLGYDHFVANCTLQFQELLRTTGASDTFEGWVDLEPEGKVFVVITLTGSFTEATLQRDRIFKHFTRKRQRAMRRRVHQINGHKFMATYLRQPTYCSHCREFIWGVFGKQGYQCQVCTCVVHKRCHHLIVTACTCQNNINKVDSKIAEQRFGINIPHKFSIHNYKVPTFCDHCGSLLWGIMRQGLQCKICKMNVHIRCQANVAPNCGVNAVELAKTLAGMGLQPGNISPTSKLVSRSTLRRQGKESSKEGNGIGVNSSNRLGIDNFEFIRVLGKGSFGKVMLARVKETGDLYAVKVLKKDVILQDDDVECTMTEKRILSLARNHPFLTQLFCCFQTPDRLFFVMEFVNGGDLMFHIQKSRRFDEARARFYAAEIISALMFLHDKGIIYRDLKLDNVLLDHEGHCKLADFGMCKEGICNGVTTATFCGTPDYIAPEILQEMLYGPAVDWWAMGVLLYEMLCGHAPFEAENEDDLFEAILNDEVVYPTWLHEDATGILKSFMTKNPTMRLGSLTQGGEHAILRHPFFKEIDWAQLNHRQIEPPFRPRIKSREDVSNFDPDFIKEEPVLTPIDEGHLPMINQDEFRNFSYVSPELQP
From the text: as §1

SNF1LK = molecular target: T10, SNF1LK (Homo sapiens, UniProt P57059); assay: Kinase inhibition screening (Luceome); assay type: biochemical; details: 10 μM
T10 construct: purchased Luceome Biotechnologies (Tucson, Ariz.)
T10 sequence (P57059 whole entry): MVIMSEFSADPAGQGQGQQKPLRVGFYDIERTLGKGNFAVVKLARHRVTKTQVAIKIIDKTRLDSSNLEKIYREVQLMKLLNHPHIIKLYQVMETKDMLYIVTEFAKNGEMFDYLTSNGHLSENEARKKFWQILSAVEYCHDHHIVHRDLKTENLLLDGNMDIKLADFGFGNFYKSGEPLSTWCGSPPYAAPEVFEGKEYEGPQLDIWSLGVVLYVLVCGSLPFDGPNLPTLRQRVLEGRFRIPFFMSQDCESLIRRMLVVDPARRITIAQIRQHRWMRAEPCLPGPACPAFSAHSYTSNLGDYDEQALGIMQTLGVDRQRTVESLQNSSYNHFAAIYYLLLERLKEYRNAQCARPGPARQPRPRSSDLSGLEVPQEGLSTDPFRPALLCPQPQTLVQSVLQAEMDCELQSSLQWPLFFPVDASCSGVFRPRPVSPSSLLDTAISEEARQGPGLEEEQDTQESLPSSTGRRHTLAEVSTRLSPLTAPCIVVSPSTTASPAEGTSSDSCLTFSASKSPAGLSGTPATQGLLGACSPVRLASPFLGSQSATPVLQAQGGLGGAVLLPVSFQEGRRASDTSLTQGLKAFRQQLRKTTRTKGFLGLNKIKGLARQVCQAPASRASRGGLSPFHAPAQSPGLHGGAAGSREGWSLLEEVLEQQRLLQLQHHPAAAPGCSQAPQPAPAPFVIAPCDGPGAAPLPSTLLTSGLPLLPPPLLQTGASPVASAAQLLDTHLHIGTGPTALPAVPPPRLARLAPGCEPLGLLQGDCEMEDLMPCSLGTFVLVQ
From the text: as §1

[1] = Reactivity toward L-cysteine (DTNB); details: 400 μM L-cysteine with equivalent concentration of compound
rat liver TrxR = rat liver TrxR (Rattus norvegicus, UniProt O89049); assay: Thioredoxin reductase inhibition (DTNB assay); details: 40 μM compound, 600 nM TrxR, 25° C.
FLT3 = molecular target: T11, FLT3 (Homo sapiens, UniProt P36888); assay: Kinase inhibition screening (Luceome); assay type: biochemical; details: 10 μM
T11 construct: purchased Luceome Biotechnologies (Tucson, Ariz.)
From the text: as §1

FYN = molecular target: T12, FYN (Homo sapiens, UniProt P06241); assay: Kinase inhibition screening (Luceome); assay type: biochemical; details: 10 μM
T12 construct: purchased Luceome Biotechnologies (Tucson, Ariz.)
From the text: as §1

GSK3α = molecular target: T13, GSK3α (Homo sapiens, UniProt P49840); assay: Kinase inhibition screening (Luceome); assay type: biochemical; details: 10 μM
T13 construct: purchased Luceome Biotechnologies (Tucson, Ariz.)
From the text: as §1

IGF1R = molecular target: T14, IGF1R (Homo sapiens, UniProt P08069); assay: Kinase inhibition screening (Luceome); assay type: biochemical; details: 10 μM
T14 construct: purchased Luceome Biotechnologies (Tucson, Ariz.)
From the text: as §1

ITK = molecular target: T15, ITK (Homo sapiens, UniProt Q08881); assay: Kinase inhibition screening (Luceome); assay type: biochemical; details: 10 μM
T15 construct: purchased Luceome Biotechnologies (Tucson, Ariz.)
From the text: as §1

LYN = molecular target: T16, LYN (Homo sapiens, UniProt P07948); assay: Kinase inhibition screening (Luceome); assay type: biochemical; details: 10 μM
T16 construct: purchased Luceome Biotechnologies (Tucson, Ariz.)
From the text: as §1

MARK1 = molecular target: T17, MARK1 (Homo sapiens, UniProt Q9P0L2); assay: Kinase inhibition screening (Luceome); assay type: biochemical; details: 10 μM
T17 construct: purchased Luceome Biotechnologies (Tucson, Ariz.)
From the text: as §1

MARK2 = molecular target: T18, MARK2 (Homo sapiens, UniProt Q7KZI7); assay: Kinase inhibition screening (Luceome); assay type: biochemical; details: 10 μM
T18 construct: purchased Luceome Biotechnologies (Tucson, Ariz.)
From the text: as §1

FLT2 = assay: Kinase inhibition screening (Luceome); assay type: biochemical, human; details: 10 μM
From the text: as §1

Compound	G1 (%) (HeLa cells)	G2/M (%) (HeLa cells)	S-Phase (%) (HeLa cells)	% Inhibition BLK (BLK) [%]	% Inhibition CAMK1 (CAMK1) [%]	% Inhibition DDR2 (DDR2) [%]	% Inhibition FGFR2 (FGFR2) [%]	% Inhibition MARK3 (MARK3) [%]	% Inhibition MLK1 (MLK1) [%]	% Inhibition MLK3 (MLK3) [%]	% Inhibition PDGFRB (PDGFRB) [%]	% Inhibition PKC-η (PKC-η) [%]	% Inhibition SNF1LK (SNF1LK) [%]	further results
CC(C)(C)OC(=O)n1ccc2c[c]([Au-][P+](c3ccccc3)(c3ccccc3)c3ccccc3)ccc21 [Compound 3, 5-{Triphenylphosphine aurate(I)}-tert-butyl1H-indole-1-carboxylate]	45.4 +/− 2.1%	13.0 +/− 2.1%	41.6 +/− 0.1%	0	0	0	5.1	6.5	32.5	31.2	8.1	3.2	0	alterations in cell-cycle progression (HeLa cells; over a 24 hour period): does not cause any significant alterations in cell-cycle progression; reactivity with BSA (relative thiol content, -SH titer) (BSA): relative thiol content of BSA remains unchanged; change in free -SH on L-cysteine [1]: does not change the titer of free —SH; also recorded: does not cause a change in the amount of free —SH; inhibition of TrxR activity (rat liver TrxR): 17%
CC(C)(C)OC(=O)n1ccc2c[c]([Au-][P+](C3CCCCC3)(C3CCCCC3)C3CCCCC3)ccc21 [Compound 4, 5-{Tricyclohexylphosphine aurate(I)}-tert-butyl1H-indole-1-carboxylate]	60.3+/−3.2% and 60.3 +/− 0.8%	11.4 +/− 4.9%	28.3 +/− 1.3%	0	0	0	0	34	42.2	43	15.2	0	40.6	% Inhibition FLT3 (FLT3): 0%; % Inhibition FYN (FYN): 1.2%; % Inhibition GSK3α (GSK3α): 5.8%; % Inhibition IGF1R (IGF1R): 4.7%; % Inhibition ITK (ITK): 3.1%; % Inhibition LYN (LYN): 0%; % Inhibition MARK1 (MARK1): 11.9%; % Inhibition MARK2 (MARK2): 26.2%; % Inhibition FLT2 (FLT2): 0%
